Laboratory results reported in patent publication US7288533B2, “Topical application for treating toenail fungus” (priority 2004, dated 2007).

Columns and labels:
[1] = tested for use as a possible sedative; cited from earlier work
[2] = test system: Candida albicans; assay: Hard surface carrier disinfection test (AOAC 991.47), colony count; type: cell-based; conditions: for Colonies Of Candida Albicans Observed: carrier 15 min in culture; for Effect on the fungus: 25% loading, summary of Examples 1-15
Method: The compositions are evaluated according to an approved surface carrier disinfection test (Official Methods of Analysis of the Association of Official Analytical Chemists protocol 991.47: Hard surface carrier test method). Cultures of Candida albicans are grown for 24 hours at room temperature in trypsin soy broth to a density of approximately McFarland standard #10. Sterile glass cylinders (Belco Cat. #2090-[…]) serve as carriers. The carriers are coated with the test composition or the control composition and subsequently submerged in 5 ml of the stock culture and allowed to remain there for 15 minutes. The carriers are aseptically transferred to sterile, dry Whatman #1 filter paper, and excess droplets of the inoculation medium are removed. The carriers are dried at 37° C. for 40 minutes and then aseptically transferred to 5 ml of trypsin soy broth. They are then sonicated for 10 minutes in as water bath at 25° C. Tubes containing the sonicated carriers are vortexed, and a portion of the medium is placed onto trypsin soy agar plates, and incubated overnight at 37° C. Microbial growth is assessed by counting colonies.

CCCC1(C)COB(c2ccc(C)cc2)OC1 [I.S. 813, 2-(p-tolyl)-(5-methyl, 5-propyl)-1,3,2,-dioxiborinane]
Toxicity [1]: very low

CC1CCOB(OCCC(C)OB2OCCC(C)O2)O1 (stereo not drawn) [compound S1, 2,2′-(1-methyltrimethylenedioxy) bis-(4-methyl-1,3,2-dioxaborinane)]
Colonies Of Candida Albicans Observed ([2]; 0.1 wt. % in mineral oil): 8
Colonies Of Candida Albicans Observed ([2]; 1.0 wt. % in mineral oil): 2
Colonies Of Candida Albicans Observed ([2]; 10 wt. % in mineral oil): 0
Effect on the fungus [2]: completely destroys the fungus
Colonies Of Candida Albicans Observed ([2]; 25 wt. % in mineral oil): 0
Colonies Of Candida Albicans Observed ([2]; 50 wt. % in mineral oil): 0
Colonies Of Candida Albicans Observed ([2]; 75 wt. % in mineral oil): 0

CC1CC(C)(C)OB(OB2OC(C)CC(C)(C)O2)O1 (stereo not drawn) [compound S2, 2,2′-oxybis (4,4,6-trimethyl-1,3,2-dioxaborinane)]
Colonies Of Candida Albicans Observed ([2]; 0.1 wt. % in mineral oil): 11
Colonies Of Candida Albicans Observed ([2]; 1.0 wt. % in mineral oil): 1
Colonies Of Candida Albicans Observed ([2]; 10 wt. % in mineral oil): 0
Effect on the fungus [2]: completely destroys the fungus
Colonies Of Candida Albicans Observed ([2]; 25 wt. % in mineral oil): 0
Colonies Of Candida Albicans Observed ([2]; 50 wt. % in mineral oil): 0
Colonies Of Candida Albicans Observed ([2]; 75 wt. % in mineral oil): 0
